Key:
Type in all cases: cell-based, mouse
[1] = tested on: cultured granule cells (release of NRG); experiment: Release of NRG into conditioned medium, read by CREB phosphorylation in granule cells; conditions: living cultured granule cells
Procedure: In the case of FIG. 6D, CREB phosphorylation following stimulation of each conditioned medium was confirmed using cerebellar granule cells. Serum-starved cerebellar granule cells were treated (for 5 to 10 minutes) with conditioned media that had been recovered from the culture products of pontine nuclei neurons and granule cells. The conditioned medium recovered from pontine nuclei neurons was used for stimulation in the cases of a, b, and c. In the cases of d, e, and f, a conditioned medium was prepared from the culture product of granule cells.
Stimulated granule cells were immobilized, followed by staining with a phospho-CREB antibody. The soluble forms that had been released after PMA stimulation (60 minutes) were concentrated and added to cultured granule cells. In panels c and f, the conditioned media should contain endogenous NRG and recombinant NRG. The difference between panels b and e indicates a function of NRG cleaved from recombinant mNRG. FIGS. 6E and 6F show the results of identification of an amino acid sequence that is necessary for proteolysis with the use of an ErbB and CREB phosphorylation assay system. The […] sequence was located above extracellular portions of transmembrane domains that were aligned in parallel. When the sequence was subjected to deletion or mutation of lysine to glycine, proteolysis efficiency was inhibited as shown in FIG. 6F. […]

[2] = tested on: NMDA receptor NR2C subunit mRNA in cultured granule cells
[3] = tested on: GABAA receptor β2 subunit mRNA in cultured granule cells; conditions: stimulation at 1.0 and 100 Hz; FIG. 9C; MK801 25 μM, CNQX 10 μM

[Cl-].[K+] [KC1]
Obvious release of NRG [1]: not observed

C[C@]12N[C@H](Cc3ccccc31)c1ccccc12 [MK801]
Increase of NR2C transcription/expression [2]: blocked NR2C elevation in a particularly strong manner
NR2C transcription / expression of NR2C mRNA ([2]; level increased at 1 and 100 Hz, FIG. 9C, MK801 25 μM): strongly blocked
β2 transcription [3]: blocked

N#Cc1cc2[nH]c(=O)c(=O)[nH]c2cc1[N+](=O)[O-] [CNQX]
β2 transcription [3]: blocked

From US20090170178A1, “Cell stimulating device and cell stimulating method” (priority 2003, published 2009)
